Assay results reported in ChEMBL document CHEMBL1132927, “New proline mimetics: synthesis of thrombin inhibitors incorporating cyclopentane- and cyclopentenedicarboxylic acid templates in the P2 position. Binding conformation investigated by X-ray crystallography” (J Med Chem, 2000).

molecular target: Prothrombin (Homo sapiens, UniProt P00734); experiment: In vitro for the inhibition of thrombin

Point of comparison: `N=C(N)c1ccc(CNC(=O)[C@@H]2CCC[C@H]2C(=O)NC2CCCCC2)cc1`, IC50 1.32 µM. Against it:
- N=C(N)c1ccc(CNC(=O)[C@H]2CCC[C@@H]2C(=O)NCc2ccccc2)cc1 — higher, > 132 µM
- CCON(C(=O)C1=CCC[C@H]1C(=O)NCc1ccc(C(=N)N)cc1)C1CCCCC1 — 1.5-fold lower, 0.87 µM
- CCN(C(=O)C1=CCC[C@H]1C(=O)NCc1ccc(C(=N)N)cc1)c1ccccc1 — within 1.5-fold, 0.98 µM
- N=C(N)c1ccc(CNC(=O)[C@@H]2CCC=C2C(=O)N2CCCCC2)cc1 — 4.6-fold higher, 6.03 µM
- N=C(N)c1ccc(CNC(=O)[C@@H]2CCC=C2C(=O)NC2CCCCC2)cc1 — within 1.5-fold, 1.51 µM
- N=C(N)c1ccc(CNC(=O)[C@@H]2CCC[C@H]2C(=O)NCc2ccccc2)cc1 — 34-fold higher, 44.7 µM
- N=C(N)c1ccc(CNC(=O)[C@@H]2CCC=C2C(=O)NCC2CCCCC2)cc1 — 7.1-fold higher, 9.33 µM
- COC(=O)[C@H](NC(=O)[C@@H]1CCC[C@H]1C(=O)NCc1ccc(C(=N)N)cc1)c1ccccc1 — 15-fold higher, 20.4 µM
- N=C(N)c1ccc(CNC(=O)[C@@H]2CCC[C@H]2C(=O)N[C@@H](C(=O)O)c2ccccc2)cc1 — higher, > 132 µM
